Data published in patent US20220073536A1 (Rigel Pharmaceuticals, Inc., priority 2003, published 2022).
Where a name gives a salt, the structure may show the parent alone. Read-outs that look alike come from different tables or passages of the source. Values belong to the molecule of their own block, whether it stands above or below them.

Test system: cultured human mast cells (CHMC)
Test: CHMC low cell density IgE activation: tryptase assay
Type: cell-based
Method in brief: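 Anti-IgE-driven degranulation of cultured human mast cells at low density, 1000–1500 cells/well, was induced over 30 min at 37 °C. It was scored by supernatant tryptase activity on a fluorogenic substrate.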

[1] = low cell density CHMC, IgE activation, tryptase release, 3 pt, read-out: LD Tryptase, CHMC, IgE, 3 pt
[2] = low cell density CHMC, IgE activation, tryptase release, 8 pt, read-out: LD Tryptase, CHMC, IgE, 8 pt
[3] = Homo sapiens, Mast cell, low cell density CHMC, IgE activation, tryptase release, 3 pt, read-out: LD Tryptase, CHMC, IgE, 3 pt
[4] = Homo sapiens, Mast cell, low cell density CHMC, IgE activation, tryptase release, 8 pt, read-out: LD Tryptase, CHMC, IgE, 8 pt
[5] = Homo sapiens, Mast cell, low cell density, IgE activation, 3 pt, read-out: LD Tryptase, CHMC, IgE, 3 pt
[6] = Homo sapiens, Mast cell, low cell density, IgE activation, 8 pt, read-out: LD Tryptase, CHMC, IgE, 8 pt
[7] = low cell density, IgE activation, 3 pt, read-out: LD Tryptase, CHMC, IgE, 3 pt
[8] = low cell density, IgE activation, 8 pt, read-out: LD Tryptase, CHMC, IgE, 8 pt

Structure (SMILES): COc1ccc(Nc2nc(Nc3ccc4c(cnn4CCCN4C(=O)CCC4=O)c3)ncc2F)cc1Cl [Compound 853, N4-(3-Chloro-4-methoxyphenyl)-5-fluoro-N2-[1-[3-(N-succinimidopropyl)]indazol-5-yl]-2,4-pyrimidinediamine]
IC50 [1]: < 10 µM | IC50 [2]: < 10 µM

Structure (SMILES): O=C1CCC(=O)N1CCCn1ncc2cc(Nc3ncc(F)c(Nc4ccc(Cl)c(Cl)c4)n3)ccc21 [Compound 854, N4-(3,4-Dichlorophenyl)-5-fluoro-N2-[1-[3-(N-succinimidopropyl)]indazol-5-yl]-2,4-pyrimidinediamine]
IC50 [1]: < 10 µM | IC50 [2]: > 10 µM

Structure (SMILES): CC1(C)Oc2ccc(Nc3nc(Nc4ccc5c(cnn5CCCN5C(=O)CCC5=O)c4)ncc3F)cc2NC1=O [Compound 855, N4-(2,2-Dimethyl-3-oxo-4H-benz[1,4]oxazin-6-yl)-5-fluoro-N2-[1-[3-(N-succinimidopropyl)]indazol-5-yl]-2,4-pyrimidinediamine]
IC50 [1]: < 10 µM | IC50 [2]: < 10 µM

Structure (SMILES): C[C@@H]1Oc2ccc(Nc3nc(Nc4ccc5c(cnn5CCCN5C(=O)CCC5=O)c4)ncc3F)cc2NC1=O [Compound 856, (S)-5-Fluoro-N4-(2-methyl-3-oxo-2H,4H-benz[1,4]oxazin-6-yl)-N2-[1-[3-(N-succinimidopropyl)]indazol-5-yl]-2,4-pyrimidinediamine]
IC50 [1]: < 10 µM | IC50 [2]: < 10 µM

Structure (SMILES): CC1(C)Oc2ccc(Nc3nc(Nc4ccc5c(cnn5CCCN5C(=O)CCC5=O)c4)ncc3F)nc2NC1=O [Compound 857, N4-(2,2-Dimethyl-3-oxo-4H-5-pyrid[1,4]oxazin-6-yl)-5-fluoro-N2-[1-[3-(N-succinimidopropyl)]indazol-5-yl]-2,4-pyrimidinediamine]
IC50 [1]: < 10 µM | IC50 [2]: < 10 µM

Structure (SMILES): COc1ccc(Nc2nc(Nc3ccc4c(cnn4CCCN4C(=O)CCCC4=O)c3)ncc2F)cc1Cl [Compound 858, N4-(3-Chloro-4-methoxyphenyl)-N2-[1-[3-(2,6-dioxopiperidino]propyl)indazol-5-yl]-5-fluoro-2,4-pyrimidinediamine]
IC50 [3]: < 10 µM | IC50 [4]: < 10 µM

Structure (SMILES): O=C1CCCC(=O)N1CCCn1ncc2cc(Nc3ncc(F)c(Nc4ccc(Cl)c(Cl)c4)n3)ccc21 [Compound 859, N4-(3,4-Dichlorophenyl)-N2-[1-[3-(2,6-dioxopiperidino)propyl]indazol-5-yl]-5-fluoro-2,4-pyrimidinediamine]
IC50 [3]: < 10 µM | IC50 [4]: < 10 µM

Structure (SMILES): CC1(C)Oc2ccc(Nc3nc(Nc4ccc5c(cnn5CCCN5C(=O)CCCC5=O)c4)ncc3F)cc2NC1=O [Compound 860, N4-(2,2-Dimethyl-3-oxo-4H-benz[1,4]oxazin-6-yl)-N2-[1-[3-(2,6-dioxopiperidino]propyl)indazol-5-yl]-5-fluoro-2,4-pyrimidinediamine]
IC50 [3]: < 10 µM | IC50 [4]: < 10 µM

Structure (SMILES): C[C@@H]1Oc2ccc(Nc3nc(Nc4ccc5c(cnn5CCCN5C(=O)CCCC5=O)c4)ncc3F)cc2NC1=O [Compound 861, (S)-N2-[1-[3-(2,6-Dioxopiperidino]propyl)indazol-5-yl]-5-fluoro-N4-(2-methyl-3-oxo-2H,4H-benz[1,4]oxazin-6-yl)-2,4-pyrimidinediamine]
IC50 [3]: < 10 µM | IC50 [4]: < 10 µM

Structure (SMILES): CC1(C)Oc2ccc(Nc3nc(Nc4ccc5c(cnn5CCCN5C(=O)CCCC5=O)c4)ncc3F)nc2NC1=O [Compound 862, N4-(2,2-Dimethyl-3-oxo-4H-5-pyrid[1,4]oxazin-6-yl)-N2-[1-[3-(2,6-dioxopiperidino]propyl)indazol-5-yl]-5-fluoro-2,4-pyrimidinediamine]
IC50 [1]: < 10 µM | IC50 [2]: < 10 µM

Structure (SMILES): Fc1cnc(Nc2ccc3[nH]c(C(F)(F)F)nc3c2)nc1Nc1ccc(Cl)c(Cl)c1 [Compound 864, N4-(3,4-Dichlorophenyl)-5-fluoro-N2-(2-trifluoromethyl-1H-benzimidazol-5-yl)-2,4-pyrimidinediamine Ethanesulfonic Acid Salt]
IC50 (Homo sapiens, Mast cell, read-out: LD Tryptase, CHMC, IgE, 3 pt): > 10 µM

Structure (SMILES): CCOCCCn1ncc2cc(Nc3ncc(F)c(Nc4ccc5c(c4)NC(=O)C(C)(C)O5)n3)ccc21 [Compound 873, N4-(2,2-Dimethyl-3-oxo-4H-benz[1,4]oxazin-6-yl)-N2-[1-(3-ethoxypropyl)indazol-5-yl]-5-fluoro-2,4-pyrimidinediamine]
IC50 [5]: < 10 µM | IC50 [6]: < 10 µM

Structure (SMILES): CCOCCCn1ncc2cc(Nc3ncc(F)c(Nc4ccc5c(c4)NC(=O)[C@H](C)O5)n3)ccc21 [Compound 874, (S)-N2-[1-(3-Ethoxypropyl)indazol-5-yl]-5-fluoro-N4-(2-methyl-3-oxo-2H,4H-benz[1,4]oxazin-6-yl)-2,4-pyrimidinediamine]
IC50 [5]: < 10 µM | IC50 [6]: < 10 µM

Structure (SMILES): Cc1nc2cc(Nc3ncc(F)c(Nc4ccc5c(c4)NC(=O)C(C)(C)O5)n3)ccc2n1C [Compound 896]
IC50 [5]: < 10 µM | IC50 [6]: < 10 µM

Structure (SMILES): Cc1nc2cc(Nc3ncc(F)c(Nc4ccc5c(c4)NC(=O)[C@H](C)O5)n3)ccc2n1C [Compound 897]
IC50 [5]: < 10 µM | IC50 [6]: < 10 µM

Structure (SMILES): Cc1nc2cc(Nc3ncc(F)c(Nc4ccc5c(n4)NC(=O)C(C)(C)O5)n3)ccc2n1C [Compound 898, N2-(1,2-Dimethylbenzimidazol-5-yl)-N4-(2,2-dimethyl-3-oxo-4H-5-pyrid[1,4]oxazin-6-yl)-5-Fluoro-2,4-pyrimidinediamine]
IC50 [5]: < 10 µM | IC50 [6]: < 10 µM

Structure (SMILES): Cc1nc2cc(Nc3ncc(F)c(Nc4ccc(Cl)c(Cl)c4)n3)ccc2n1CCO [Compound 899]
IC50 [5]: < 10 µM | IC50 [6]: < 10 µM

Further lines, results first:

IC50 [5]: < 10 µM | IC50 [6]: < 10 µM
Structure (SMILES): CCOCCCn1ncc2cc(Nc3ncc(F)c(Nc4ccc(OC)c(Cl)c4)n3)ccc21 [Compound 871, N4-(3-Chloro-4-methoxyphenyl)-N2-[1-(3-ethoxypropyl)indazol-5-yl]-5-fluoro-2,4-pyrimidinediamine]

IC50 [5]: < 10 µM
Structure (SMILES): CCOCCCn1ncc2cc(Nc3ncc(F)c(Nc4ccc(Cl)c(Cl)c4)n3)ccc21 [Compound 872, N4-(3,4-Dichlorophenyl)-N2-[1-(3-ethoxypropyl)indazol-5-yl]-5-fluoro-2,4-pyrimidinediamine]

IC50 [7]: < 10 µM | IC50 [8]: < 10 µM
Structure (SMILES): CCOCCCn1ncc2cc(Nc3ncc(F)c(Nc4ccc5c(n4)NC(=O)C(C)(C)O5)n3)ccc21 [Compound 875, N4-(2,2-Dimethyl-3-oxo-4H-5-pyrid[1,4]oxazin-6-yl)-N2-[1-(3-ethoxypropyl)indazol-5-yl]-5-fluoro-2,4-pyrimidinediamine]

IC50 [5]: < 10 µM | IC50 [6]: < 10 µM
Structure (SMILES): COc1ccc(Nc2nc(Nc3cc(OC)c(OC)c(OC)c3)ncc2F)nc1Cl [Compound 876, N4-(2-Chloro-3-methoxypyrid-6-yl)-5-fluoro-N2-(3,4,5-trimethoxyphenyl)-2,4-pyrimidinediamine]

IC50 [5]: < 10 µM
Structure (SMILES): COc1ccc(Nc2ncc(F)c(Nc3ccc(OC)c(Cl)n3)n2)cc1OC [Compound 877, N4-(2-Chloro-3-methoxypyrid-6-yl)-N2-(3,4-dimethoxyphenyl)-5-fluoro-2,4-pyrimidinediamine]

IC50 [5]: > 10 µM
Structure (SMILES): COc1ccc(Nc2ncc(F)c(Nc3ccc(OC)c(Cl)n3)n2)cc1Cl [Compound 878, N2-(3-Chloro-4-methoxyphenyl)-N4-(2-chloro-3-methoxypyrid-6-yl)-5-fluoro-2,4-pyrimidinediamine]

IC50 [5]: < 10 µM | IC50 [6]: < 10 µM
Structure (SMILES): COc1ccc(Nc2nc(Nc3cc(C)cc(C)c3)ncc2F)nc1Cl [Compound 879, N4-(2-Chloro-3-methoxypyrid-6-yl)-N2-(3,5-dimethylphenyl)-5-fluoro-2,4-pyrimidinediamine]

IC50 [7]: < 10 µM | IC50 [8]: < 10 µM
Structure (SMILES): CNC(=O)COc1cccc(Nc2ncc(F)c(Nc3ccc(OC)c(Cl)n3)n2)c1 [Compound 880, N4-(2-Chloro-3-methoxypyrid-6-yl)-5-fluoro-N2-[3-(N-methylamino)carbonylmethyleneoxyphenyl]-2,4-pyrimidinediamine]

IC50 [5]: < 10 µM
Structure (SMILES): COc1ccc(Nc2nc(Nc3ccc4cn[nH]c4c3)ncc2F)nc1Cl [Compound 882]

IC50 [5]: < 10 µM
Structure (SMILES): COc1ccc(Nc2nc(Nc3ccc4[nH]c(C(F)(F)F)nc4c3)ncc2F)nc1Cl [Compound 883]

IC50 [5]: < 10 µM
Structure (SMILES): COc1ccc(Nc2nc(Nc3ccc4nc(C)[nH]c4c3)ncc2F)nc1Cl [Compound 884]

IC50 [5]: < 10 µM
Structure (SMILES): COc1ccc(Nc2nc(Nc3ccc4cnn(C)c4c3)ncc2F)nc1Cl [Compound 885]

IC50 [5]: > 10 µM
Structure (SMILES): COc1ccc(Nc2nc(Nc3ccc4c(cnn4C)c3)ncc2F)nc1Cl [Compound 886]

IC50 [5]: < 10 µM
Structure (SMILES): CCn1ncc2ccc(Nc3ncc(F)c(Nc4ccc(OC)c(Cl)n4)n3)cc21 [Compound 887]

IC50 [5]: < 10 µM
Structure (SMILES): COc1ccc(Nc2nc(Nc3ccc4cnn(C(C)C)c4c3)ncc2F)nc1Cl [Compound 888]

IC50 [5]: < 10 µM
Structure (SMILES): COc1ccc(Nc2nc(Nc3ccc4c(c3)NC(=O)C(C)(C)O4)ncc2F)nc1Cl [Compound 889]

IC50 [5]: < 10 µM
Structure (SMILES): COc1ccc(Nc2nc(Nc3ccc4c(cnn4CCCNC(C)=O)c3)ncc2F)nc1Cl [Compound 890]

IC50 [5]: < 10 µM
Structure (SMILES): COc1ccc(Nc2nc(Nc3ccc4c(cnn4CCCNC(=O)C4CC4)c3)ncc2F)nc1Cl [Compound 891]

IC50 [5]: < 10 µM
Structure (SMILES): COc1ccc(Nc2nc(Nc3ccc4c(cnn4CCCNC(=O)C(C)(C)C)c3)ncc2F)nc1Cl [Compound 892]

IC50 [5]: < 10 µM
Structure (SMILES): COc1ccc(Nc2nc(Nc3ccc4c(cnn4CCCNC(=O)C(C)C)c3)ncc2F)nc1Cl [Compound 893]

IC50 [5]: < 10 µM
Structure (SMILES): Cc1nc2cc(Nc3ncc(F)c(Nc4ccc(Cl)c(Cl)c4)n3)ccc2n1C [Compound 894]

IC50 [5]: < 10 µM
Structure (SMILES): COc1ccc(Nc2nc(Nc3ccc4c(c3)nc(C)n4C)ncc2F)cc1Cl [Compound 895]
